From ChEMBL document CHEMBL1201862, “PubChem BioAssay data set” (2004)
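Cultured in 96-well plates, cells were exposed to test compound for 48 hours across five concentrations. Abbreviation: GI50, concentration required for 50% inhibition of growth.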 Active and inactive are the calls of the source. No stated cut-off is given here; in the data, active = GI50 up to about 1.1 µM and inactive = higher.

What was measured:
Test in all cases: DTP human tumour cell line panel, 48 h
786-0 = tested on: 786-0
A498 = tested on: A498
A549 = tested on: A549
ACHN = tested on: ACHN
CAKI-1 = tested on: CAKI-1
CCRF-CEM = tested on: CCRF-CEM
COLO 205 = tested on: COLO 205
DLD-1 = tested on: DLD-1
DMS-273 = tested on: DMS-273
EKVX = tested on: EKVX
HCC 2998 = tested on: HCC 2998
HCT-15 = tested on: HCT-15
HL-60 = tested on: HL-60
HOP-18 = tested on: HOP-18
HOP-62 = tested on: HOP-62
HT-29 = tested on: HT-29
IGROV-1 = tested on: IGROV-1
K562 = tested on: K562
KM-20L2 = tested on: KM-20L2
KM12 = tested on: KM12
LOX IMVI = tested on: LOX IMVI
LXFL 529 = tested on: LXFL 529
M14 = tested on: M14
M19-MEL = tested on: M19-MEL
MOLT-4 = tested on: MOLT-4
Malme-3M = tested on: Malme-3M
NCI-H226 = tested on: NCI-H226
NCI-H23 = tested on: NCI-H23
NCI-H460 = tested on: NCI-H460
NCI-H522 = tested on: NCI-H522
OVCAR-3 = tested on: OVCAR-3
OVCAR-4 = tested on: OVCAR-4
OVCAR-5 = tested on: OVCAR-5
OVCAR-8 = tested on: OVCAR-8
RPMI-8226 = tested on: RPMI-8226
RXF 393 = tested on: RXF 393
SF-268 = tested on: SF-268
SF-295 = tested on: SF-295
SF-539 = tested on: SF-539
SK-MEL-28 = tested on: SK-MEL-28
SK-MEL-2 = tested on: SK-MEL-2
SK-MEL-5 = tested on: SK-MEL-5
SK-OV-3 = tested on: SK-OV-3
SN12C = tested on: SN12C
SNB-19 = tested on: SNB-19
SNB-75 = tested on: SNB-75
SW-620 = tested on: SW-620
TK-10 = tested on: TK-10
UACC-257 = tested on: UACC-257
UACC-62 = tested on: UACC-62
UO-31 = tested on: UO-31
XF498 = tested on: XF498

## Cc1ccc(C2=Nc3ccccc3SC(c3cccc4c3OCO4)C2)cc1 (configuration not stated)
786-0
  GI50: 19 µM (inactive)
A498
  GI50: 14.7 µM (inactive)
A549
  GI50: 23.9 µM (inactive)
ACHN
  GI50: 20.4 µM (inactive)
CAKI-1
  GI50: 16.1 µM (inactive)
CCRF-CEM
  GI50: 15.7 µM (inactive)
COLO 205
  GI50: 18.3 µM (inactive)
DLD-1
  GI50: 27.9 µM (inactive)
DMS-273
  GI50: 19.7 µM (inactive)
EKVX
  GI50: 21.1 µM (inactive)
HCC 2998
  GI50: 20.9 µM (inactive)
HCT-15
  GI50: 21.1 µM
HL-60
  GI50: 17.4 µM (inactive)
HOP-18
  GI50: 13.5 µM (inactive)
HOP-62
  GI50: 33.1 µM (inactive)
HT-29
  GI50: 16.9 µM (inactive)
IGROV-1
  GI50: 16.7 µM (inactive)
K562
  GI50: 14.8 µM (inactive)
KM-20L2
  GI50: 21.3 µM (inactive)
KM12
  GI50: 15.7 µM (inactive)
LOX IMVI
  GI50: 16.6 µM (inactive)
LXFL 529
  GI50: 15 µM (inactive)
M14
  GI50: 18 µM (inactive)
M19-MEL
  GI50: 19.8 µM (inactive)
MOLT-4
  GI50: 17.9 µM (inactive)
Malme-3M
  GI50: 24.1 µM (inactive)
NCI-H226
  GI50: 18.1 µM (inactive)
NCI-H23
  GI50: 16.7 µM (inactive)
NCI-H460
  GI50: 31.3 µM (inactive)
NCI-H522
  GI50: 13.9 µM (inactive)
OVCAR-3
  GI50: 14.8 µM (inactive)
OVCAR-4
  GI50: 15.5 µM (inactive)
OVCAR-5
  GI50: 21.8 µM (inactive)
OVCAR-8
  GI50: 21.2 µM (inactive)
RPMI-8226
  GI50: 17.7 µM (inactive)
RXF 393
  GI50: > 10 µM (inactive)
SF-268
  GI50: 21.1 µM (inactive)
SF-295
  GI50: 18.7 µM (inactive)
SF-539
  GI50: 20 µM (inactive)
SK-MEL-28
  GI50: 17.6 µM (inactive)
SK-MEL-2
  GI50: 20.3 µM (inactive)
SK-MEL-5
  GI50: 16.2 µM (inactive)
SK-OV-3
  GI50: 35.8 µM (inactive)
SN12C
  GI50: 19.5 µM (inactive)
SNB-19
  GI50: 16.1 µM (inactive)
SNB-75
  GI50: 7.94 µM (inactive)
SW-620
  GI50: 19.1 µM (inactive)
TK-10
  GI50: 21.2 µM (inactive)
UACC-257
  GI50: 18 µM (inactive)
UACC-62
  GI50: 20.3 µM (inactive)
UO-31
  GI50: 14.1 µM (inactive)
XF498
  GI50: 15.5 µM (inactive)
